Measured values published in US20210121456A1, “USE OF METHYLNALTREXONE TO ATTENUATE TUMOR PROGRESSION” (Salix Pharmaceuticals, Inc., priority 2014, published 2021).

Test system: patients with advanced cancers (and non-cancer advanced illness) and opioid-induced constipation
Assay: Pooled post-hoc analysis of Study 1 and Study 2: deaths and overall survival
Format: in vivo, human
Protocol: Routine adverse event (AE) evaluations described in Example 3 were analyzed. AEs of tumor progression in specific cancers and survival analysis of the placebo and methylnaltrexone-treated cohorts in the clinical studies were tabulated. Both studies were randomized, placebo-controlled trials that involved a 2-week treatment period followed by a 2-week follow-up period. The enrolled subjects were advanced illness (incurable cancer or other end-stage disease) subjects with OIC who were receiving stable doses of laxatives and opioid analgesics. In the context of the study, a stable dose of opioid analgesics was defined as no reduction in the dose of opioid analgesic of ≥50% for at least three days before the first dose of MNTX. A stable dose of laxatives was defined as having a standing laxative order (and not PRN, or as-needed) for at least three days before the first dose of MNTX. A diagnosis of constipation was provided if the subject had (a) fewer than 3 bowel movements during the previous week by history and no clinically notable laxation in the 24 hours before the first dose of MNTX, or (b) no clinical notable laxation in the 48 hours before the first dose of MNTX. In Study 1 (Example 1), subjects received subcutaneous MNTX 0.15 mg/kg or placebo (PBO) every other day (QOD), and in Study 2 (Example 2) subjects received subcutaneous MNTX (8 mg or 12 mg based on body weight 38 to <62 kg or ≥62 kg, respectively) or placebo administered QOD. The 12 mg fixed dose was designed to correspond to the 0.15 mg/kg weight-based dose. Rescue-laxatives, enemas or manual disimpactions were not administered within 4 hours before or after each dose of MNTX. […] For statistical significance testing, the Fisher's exact test was used (p<0.05).
Subsequent to the initial pooled analysis in Example 3, the data from Study 1 and Study 2 was re-analyzed for overall survival (OS) in a post-hoc analysis. Overall survival (OS) was defined as the time interval from the treatment initiation to the date of death or the date of last follow up, whichever occurred first. […] In Study 2, 151 of the enrolled 229 patients were diagnosed with advanced cancers. […] FIG. 12 provides a schematic of the subjects with advanced cancers from the pooled studies that were analyzed in the subsequent analysis. Table 3 provides the patient characteristics from the subsequent pooled analysis of the two studies. Table 4 provides a distribution of the type of cancer diagnosed in the subjects analyzed for survival.
Table 7 lists the number of deaths and survivors in both the placebo and the methylnaltrexone-treated groups for subjects diagnosed with lung, breast, prostate, pancreatic and colon cancer. The groups are further categorized into methylnaltrexone responders and methylnaltrexone non-responders alone or in combination with the placebo group. The analysis included the results from the double-blind and open label phases of the studies. When the group of MNTX-treated subjects across both studies was examined, there was a significant difference in the percentage of subject deaths between the MNTX-responsive group and the MNTX non-responsive group, with the number of survivors in the MNTX-responsive group exceeding the number of survivors in the MNTX non-responsive group. […] For the analysis in Table 7, a subject with laxation within 0-4 hours after two of the first four doses of MNTX was considered a responder. The data in Table 6 may vary slightly from that in Table 4 based on how the subjects were coded as cancer patients during analysis of the data. […]
For the analysis carried out in this Example and in Example 3, a subject with laxation occurring from 0-4 hours after two of the first four doses of MNTX was considered a MNTX responder or responsive subject. Data for placebo patients who elected to participate in the open-label MNTX treatment phase was collected from the first 4 doses of open-label treatment. […]

[1] = Excluding crossover to MNTX (MNTX 117, placebo 61)
[2] = Patients on placebo (crossover to MNTX 51, placebo 61)
[3] = Table 6, Non-Responders (versus Responders < 4hr)
[4] = Table 6, Non-Responders (versus Responders < 8hr)
[5] = Table 6, Non-Responders (versus Responders < 12hr)
[6] = Table 6, Non-Responders (versus Responders < 24hr)
[7] = Table 7, MNTX All, Total of five cancers
[8] = Table 7, MNTX Non-Responders, Breast
[9] = Table 7, MNTX Non-Responders, Colon
[10] = Table 7, MNTX Non-Responders, Lung
[11] = Table 7, MNTX Non-Responders, Pancreas
[12] = Table 7, MNTX Non-Responders, Prostate
[13] = Table 7, MNTX Non-Responders, Total of five cancers
[14] = Table 7, MNTX Responders, Breast
[15] = Table 7, MNTX Responders, Colon
[16] = Table 7, MNTX Responders, Pancreas
[17] = Table 7, MNTX Responders, Prostate
[18] = Table 7, MNTX Responders, Total of five cancers

C[N@+]1(CC2CC2)CC[C@]23c4c5ccc(O)c4O[C@H]2C(=O)CC[C@@]3(O)[C@H]1C5.[Br-] [MNTX, (R)—N-(cyclopropylmethyl) noroxymorphone methobromide]
overall survival MNTX vs. placebo (134 patients with advanced illness other than cancer, p=0.88): no difference
Hazard Ratio, Treatment: MNTX vs. placebo (overall survival, Cox regression) (All patients (MNTX 117, placebo 112)): 0.70
Hazard Ratio, Response vs. no response [1]: 0.32
Hazard Ratio, Treatment: MNTX vs. placebo [1]: 0.32
Deaths (number) (MNTX All Patients, Cancer): 45
Deaths (number) (MNTX All Patients, Non-Cancer): 11
Deaths (%) (MNTX All Patients, Totals): (31.3%)
Deaths (number) (MNTX All Patients, Totals): 56
Deaths (number) (MNTX Non-Responders, Cancer): 23
Deaths (number) (MNTX Non-Responders, Non-Cancer): 5
Deaths (%) (MNTX Non-Responders, Totals): (39.4%)
Deaths (number) (MNTX Non-Responders, Totals): 28
Deaths (number) (MNTX Responders, Cancer): 22
Deaths (number) (MNTX Responders, Non-Cancer): 6
Deaths (%) (MNTX Responders, Totals): (25.9%)
Deaths (number) (MNTX Responders, Totals): 28
median overall survival (OS) (MNTX non-responsive group (45 subjects)): 58 days
overall survival (OS) (MNTX-responsive group, analysis before the updated analysis (FIG. 9)): 121 days
Hazard Ratio, Response vs. no response [2]: 0.64
Hazard Ratio, Treatment: MNTX vs. placebo [2]: 0.15
% Deaths [3]: 50.0%
Deaths [3]: 22
Survivors [3]: 22
% Deaths [4]: 53.8%
Deaths [4]: 21
Survivors [4]: 18
% Deaths [5]: 50.0%
Deaths [5]: 18
Survivors [5]: 18
% Deaths [6]: 48.4%
Deaths [6]: 15
Survivors [6]: 16
% Deaths (Table 6, Responders < 4hr): 31.5%
Deaths (Table 6, Responders < 4hr): 23
Survivors (Table 6, Responders < 4hr): 50
% Deaths (Table 6, Responders < 8hr): 30.8%
Deaths (Table 6, Responders < 8hr): 24
Survivors (Table 6, Responders < 8hr): 54
% Deaths (Table 6, Responders < 12hr): 33.3%
Deaths (Table 6, Responders < 12hr): 27
Survivors (Table 6, Responders < 12hr): 54
% Deaths (Table 6, Responders < 24hr): 34.9%
Deaths (Table 6, Responders < 24hr): 30
Survivors (Table 6, Responders < 24hr): 56
Deaths (Table 7, MNTX All, Breast): 3
Deaths (%) (Table 7, MNTX All, Breast): 21.4%
Survivors (Table 7, MNTX All, Breast): 11
Deaths (Table 7, MNTX All, Colon): 1
Deaths (%) (Table 7, MNTX All, Colon): 25.0%
Survivors (Table 7, MNTX All, Colon): 3
Deaths (Table 7, MNTX All, Lung): 14
Deaths (%) (Table 7, MNTX All, Lung): 45.2%
Survivors (Table 7, MNTX All, Lung): 17
Deaths (Table 7, MNTX All, Pancreas): 3
Deaths (%) (Table 7, MNTX All, Pancreas): 33.3%
Survivors (Table 7, MNTX All, Pancreas): 6
Deaths (Table 7, MNTX All, Prostate): 5
Deaths (%) (Table 7, MNTX All, Prostate): 41.7%
Survivors (Table 7, MNTX All, Prostate): 7
Deaths [7]: 26
Deaths (%) [7]: 37.7%
Survivors [7]: 43
Deaths [8]: 2
Deaths (%) [8]: 50.0%
Survivors [8]: 2
Deaths [9]: 0
Deaths (%) [9]: 0.0%
Survivors [9]: 1
Deaths [10]: 8
Deaths (%) [10]: 47.1%
Survivors [10]: 9
Deaths [11]: 3
Deaths (%) [11]: 75.0%
Survivors [11]: 1
Deaths [12]: 3
Deaths (%) [12]: 60.0%
Survivors [12]: 2
Deaths [13]: 16
Deaths (%) [13]: 51.6%
Survivors [13]: 15
Deaths (Table 7, MNTX Responders (laxation within 0-4 hours after two of the first four doses), Lung): 6
Deaths [14]: 1
Deaths (%) [14]: 10.0%
Survivors [14]: 9
Deaths [15]: 1
Deaths (%) [15]: 33.3%
Survivors [15]: 2
Deaths (%) (Table 7, MNTX Responders, Lung): 42.9%
Survivors (Table 7, MNTX Responders, Lung): 8
Deaths [16]: 0
Deaths (%) [16]: 0.0%
Survivors [16]: 5
Deaths [17]: 2
Deaths (%) [17]: 28.6%
Survivors [17]: 5
Deaths [18]: 10
Deaths (%) [18]: 26.3%
Survivors [18]: 28
median overall survival (OS) (cancer patients treated with MNTX (n=117)): 76 days
median overall survival (OS) (cancer patients with response to MNTX (n=72)): 118 days
median OS (lung cancer patients (n=15) with response to MNTX): 118 days
median OS (lung cancer, 32 patients treated with MNTX): 118 days
Deaths (pancreatic cancer, 4 patients with response to MNTX): no death
median OS (pancreatic cancer, 8 patients treated with MNTX): 76 days
survival extended after administration (pancreatic cancer, methylnaltrexone-responsive group, initial analysis (FIG. 12)): ~100 days
median OS (placebo patients (n=23) with response to MNTX during open-label treatment): 74 days
median overall survival (placebo patients (n=56) who crossed over to MNTX): 75 days
